Results taken from patent publication US4320127A, “Pyrido[3,2-e]-as-triazines” (Edyt Gyogyszervegyeszeti Gyar, priority 1979, dated 1982).
Counter-ions that a name gives are not always drawn. Like-named read-outs stand apart in the source and are kept apart here.

Key:
[1] = tested on: carrageenin oedema of the hind paw; assay: antiphlogistic (oedema-inhibiting) effect, carrageenin paw oedema; assay type: in vivo, rats; conditions: for ED30: Rattus norvegicus; for Therapeutical index: carrageenin oedema
Method: The antiphlogistic (oedema-inhibiting) effect was tested on rats. 0.1 ml of a 1% carrageenin solution were injected into the plantar region of one of the hind paws. The volume of the paw was measured just before and 3 hours after the introduction of oedema-provoking agent by a mercury plethysmometer.

reserpine = reserpine antagonism (Brodie et al.); assay type: in vivo; conditions: mice; for ED50: Mus musculus, oral administration; for Therapeutic index: reserpine antagonism, oral
tetrabenazine = tetrabenazine antagonism (Brodie et al.); assay type: in vivo; conditions: mice; for ED50: Mus musculus, oral administration; for Therapeutic index: tetrabenazine antagonism, oral
in vivo = conditions: mouse
Method: The toxicity of the new compounds according to the invention was determined on mice after oral administration.

hexobarbital-narcosis = assay: effect on the duration of hexobarbital-narcosis (Kaergaard); conditions: for ED50: Mus musculus, po; for Therapeutical index: hexobarbital-narcosis, mice, oral
From the text: The effect of the compounds exerted on the duration of hexobarbital-narcosis was orally tested on mice by the method of Kaergaard (Arch. Int. Pharmacodyn. 2 170 (1967)).

motility of mice = assay: effect on the motility of mice in a Dews apparatus (Borsy et al.); conditions: for ED50: Mus musculus, po; for Therapeutical index: motility, mice, oral
From the text: The effect of the compounds on the motility of mice was orally tested in a Dews apparatus, by the method of Borsy et al. (Arch. Int. Pharmacodyn. 124 1-2 (1960). The ED50 values and the therapeutical indices are listed in Table 2.

acetic acid writhing = assay: analgesic effect, acetic acid writhing test; assay type: in vivo; conditions: mice, oral; for ED50: Mus musculus, analgesic
Method: The analgesic effect of the new compounds was determined on mice at oral administration by the acetic acid writhing test.

[2] = dosage inhibiting the inflammation by 30%, rats, 0.1 ml of 1% carrageenin, 3 hours, read-out: ED30

Row | SMILES | ED30 ([1]; 3 h) | ED50 (reserpine) | Therapeutic index (reserpine) | ED50 (tetrabenazine) | Therapeutic index (tetrabenazine) | LD50 (in vivo; mice, oral administration) | ED50 (hexobarbital-narcosis) | Therapeutical index (hexobarbital-narcosis) | ED50 (motility of mice) | Therapeutical index (motility of mice) | ED30 [1, 2] | Therapeutical index ([1]; rats) | ED50 (acetic acid writhing) | Therapeutical index (acetic acid writhing) | LD50 (in vivo; po)
1 | CC(=O)Oc1ccccc1C(=O)O [Acetylsalicylic acid, reference compound] | 180 mg/kg | – | – | – | – | – | – | – | – | – | – | – | – | – | –
2 | CN(C)CCC=C1c2ccccc2CCc2ccccc21 [Amitriptyline, reference compound] | – | 65 mg/kg | 3.46 | 12 mg/kg | 18.75 | – | – | – | – | – | – | – | – | – | –
3 | CCCCCCC1=Nc2cccnc2N(C(=O)CC)N1.Cl [Example 1, 3-n-hexyl-1-propionyl-1,2-dihydropyrido[3,2-e]-as-triazine hydrochloride] | – | 300 mg/kg | 5 | 300 mg/kg | 5 | 1500 mg/kg | ~400 mg/kg | about 5 | ~200 mg/kg | 7.5 | 200 mg/kg | 7.5 | – | – | –
4 | CCC(=O)N1NC(c2ccc(OC)cc2)=Nc2cccnc21 [Example 5, 3-anisyl-1-propionyl-1,2-dihydropyrido[3,2-e]-as-triazine hydrochloride] | – | 170 mg/kg | 4.4 | 80 mg/kg | 9.4 | 750 mg/kg | ~170 mg/kg | 4.4 | ~170 mg/kg | 4.4 | 75 mg/kg | 10 | 52 mg/kg | 14.4 | –
5 | CCC(=O)N1NC(c2cc(OC)c(OC)c(OC)c2)=Nc2cccnc21.Cl [Example 6, 3-(3',4',5'-trimethoxyphenyl)-1-propionyl-1,2-dihydropyrido[3,2-e]-as-triazine hydrochloride] | – | – | – | – | – | 2000 mg/kg | ~350 mg/kg | 5.7 | ~400 mg/kg | about 5 | ~155 mg/kg | 12.9 | 215 mg/kg | 9.3 | –
6 | CCC(=O)N1NC(CCc2ccccc2)=Nc2cccnc21 [Example 7, 3-phenetyl-1-propionyl-1,2-dihydropyrido-[3,2-e]-as-triazine] | – | – | – | – | – | 2000 mg/kg | > 400 mg/kg | below 5 | > 400 mg/kg | under 5 | – | – | > 400 mg/kg | below 5 | –
7 | CCCCCCC1=Nc2cccnc2N(C(=O)c2cccnc2)N1 [Example 11, 3-n-hexyl-1-nicotinoyl-1,2-dihydropyrido-[3,2-e]-as-triazinedihydrochloride] | – | – | – | – | – | – | 140 mg/kg | 14.3 | ~200 mg/kg | about 10 | – | – | ~400 mg/kg | 5 | 2000 mg/kg
8 | CCCCC1C(=O)N2C(c3ccccc3)=Nc3cccnc3N2C1=O (stereo not shown) [Example 13, 2-butyl-4-phenylpyrazolo[1,2-a]pyrido[3,2-e]-as-triazine-1,3-dione] | – | – | – | – | – | – | – | – | – | – | > 400 mg/kg | below 5 | > 400 mg/kg | below 5 | 2000 mg/kg
9 | CCCCCCC1=Nc2cccnc2N(C(=O)c2ccccc2)N1.Cl [Example 18, 3-hexyl-1-benzoyl-1,2-dihydropyrido[3,2-e]-as-triazine hydrochloride] | – | 30 mg/kg | 12.7 | 10 mg/kg | 38 | 380 mg/kg | 80 mg/kg | 5 | – | – | ~70 mg/kg | 5.4 | ~38 mg/kg | 10 | –
10 | CCCC(C)(COC(N)=O)COC(N)=O [Meprobamate, reference compound] | – | – | – | – | – | – | 260 mg/kg | 4.2 | 270 mg/kg | 4.1 | – | – | – | – | –
11 | CC(=O)Nc1ccc(O)cc1 [Paracetamol, reference compound] | – | – | – | – | – | – | – | – | – | – | – | – | 180 mg/kg | – | –
